Data taken from patent US7638637B2, “Orally available sphingosine 1-phosphate receptor agonists and antagonists” (University of Virginia Patent Foundation, priority 2003, dated 2009).
Entries after “also recorded” stand apart in the source; their conditions may differ. Each block holds one compound with its values, some of them ahead of it.

Tests used:
Format in all cases: biochemical
S1P receptors [1] = assay: [γ-35S]GTP binding assay, recombinant S1P receptors in general; details: each receptor
Protocol: (§1) The same results were obtained regardless of whether the recombinant receptor used exogenous G proteins (HEK293T cells) or endogenous G proteins (RH7777 cells). In addition, insect Sf9 cells infected with recombinant baculovirus encoding receptors (e.g. […] The Sf9 cell and HEK293T cell membranes gave similar results. Furthermore, the activities measured in the broken cell assay predicted the responses seen in whole cell assays. […] After incubating for 30 minutes at 30° C., bound radionuclide was separated from free by filtration through Whatman GF/C paper using a Brandel Cell Harvester (Gaithersburg, Md.). Assay of cAMP accumulation was performed as described previously (See Im et al., J. Biol. […] Assays were conducted on populations of 5×10^5 cells stimulated with 1 μM forskolin in the presence of the phosphodiesterase inhibitor isomethylbutylxanthine (IBMX, 1 mM) for 15 minutes. cAMP was measured by automated radioimmunoassay.

zS1P1 = target: T1, zS1P1 (Danio rerio, UniProt Q9DDK4); assay: [γ-35S]GTP binding assay, zebrafish S1P1 overexpressed in rat RH-7777 cells; details: read-out: EC50 Values (nM) for S1P Analogues at Recombinant S1P Receptors, zS1P1; GTPγS binding; zebrafish S1P1 overexpressed rat RH-7777
T1 construct: expressed in transfected cells; host or cells: rat hepatoma RH-7777 cells
T1 sequence (Q9DDK4 1-362): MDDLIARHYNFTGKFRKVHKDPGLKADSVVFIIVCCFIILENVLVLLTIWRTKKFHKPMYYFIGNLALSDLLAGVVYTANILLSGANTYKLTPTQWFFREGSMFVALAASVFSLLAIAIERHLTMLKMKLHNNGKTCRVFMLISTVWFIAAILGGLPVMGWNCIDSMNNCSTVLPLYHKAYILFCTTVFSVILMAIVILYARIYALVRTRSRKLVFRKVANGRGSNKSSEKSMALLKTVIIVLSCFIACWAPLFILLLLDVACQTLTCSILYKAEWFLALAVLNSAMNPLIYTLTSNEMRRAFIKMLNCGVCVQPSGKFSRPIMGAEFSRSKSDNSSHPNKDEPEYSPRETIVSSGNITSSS
Protocol: (§2) After incubating for 30 minutes at 30° C., bound radionuclide was separated from free by filtration through Whatman GF/C paper using a Brandel Cell Harvester (Gaithersburg, Md.).
Rat hepatoma RH7777 cell monolayers were transfected with human or mouse S1P5/pCR3.1 DNA using the calcium phosphate precipitate method, and clonal populations expressing the neomycin phosphotransferase gene were selected by addition of geneticin (G418) to the culture medium. The RH7777 cells were grown in monolayers at 37° C. in a 5% CO2/95% air atmosphere in growth medium consisting of 90% MEM, […], 2 mM glutamine, and 1 mM sodium pyruvate.
(§3) Assay of cAMP accumulation was performed as described previously (See Im et al., J. Biol. Chem. 275, 14281-14286 (2000), the disclosure of which is incorporated herein). Assays were conducted on populations of 5×10^5 cells stimulated with 1 μM forskolin in the presence of the phosphodiesterase inhibitor isomethylbutylxanthine (IBMX, 1 mM) for 15 minutes. cAMP was measured by automated radioimmunoassay. The GTPγS studies were performed using zebrafish S1P1 overexpressed rat RH-7777 and human hS1P1, hS1P2, hS1P3 and hS1P5 overexpressed human HEK293 cells.

hS1P1 = target: T2, hS1P1 (Homo sapiens, UniProt P21453); assay: [γ-35S]GTP binding assay, HEK293T cell membranes, S1P1; details: GTPγS binding; for EC50: read-out: EC50 Values (nM) for S1P Analogues at Recombinant S1P Receptors, hS1P1, overexpressed human HEK293 cells
T2 construct: expressed in transfected cells; host or cells: HEK293T cells (transient)
Protocol: (§4) Human or mouse S1P5 DNA was mixed with an equal amount of DNA encoding a rat Gi2R protein as well as DNAs encoding cow β1 and γ2 proteins and used to transfect monolayers of HEK293T cells using the calcium phosphate precipitate method. After 60 hours, cells were harvested, and microsomes were prepared, aliquoted, and stored at −70° C. until use.
as §2, §3
(§5) An additional series of compounds was tested using the GTPCS binding assay described in Example 2 and in Im et al., J. Biol. Chem. 275, 14281-14286 (2000), the disclosure of which is incorporated herein).

hS1P3 = target: T3, hS1P3 (Homo sapiens, UniProt Q99500); assay: [γ-35S]GTP binding assay, HEK293T cell membranes, S1P3; details: GTPγS binding; for EC50: read-out: EC50 Values (nM) for S1P Analogues at Recombinant S1P Receptors, hS1P3, overexpressed human HEK293 cells
T3 construct: expressed in transfected cells; host or cells: HEK293T cells (transient)
Protocol: as §4, §2, §3, §5

hS1P2 = target: T4, hS1P2 (Homo sapiens, UniProt O95136); assay: [γ-35S]GTP binding assay, HEK293T cell membranes, S1P2; details: GTPγS binding; for EC50: read-out: EC50 Values (nM) for S1P Analogues at Recombinant S1P Receptors, hS1P2, overexpressed human HEK293 cells
T4 construct: expressed in transfected cells; host or cells: HEK293T cells (transient)
Protocol: as §4, §2, §3, §5

hS1P5 = target: T5, hS1P5 (Homo sapiens, UniProt Q9H228); assay: [γ-35S]GTP binding assay, HEK293T cell membranes, S1P5; details: read-out: EC50 Values (nM) for S1P Analogues at Recombinant S1P Receptors, hS1P5; GTPγS binding; overexpressed human HEK293 cells
T5 construct: expressed in transfected cells; host or cells: HEK293T cells (transient, calcium phosphate)
Protocol: as §4, §2, §3, §5

mS1P5 = target: T6, mS1P5 (Mus musculus, UniProt Q91X56); assay: [γ-35S]GTP binding assay, mouse S1P5; details: read-out: EC50 Values (nM) for S1P Analogues at Recombinant S1P Receptors, mS1P5, GTPγS binding
T6 construct: expressed in transfected cells; host or cells: HEK293T cells (transient)
Protocol: as §4, §2, §3

hS1P4 = target: T7, hS1P4 (Homo sapiens, UniProt O95977); assay: [γ-35S]GTP binding assay, HEK293T cell membranes, S1P4; details: GTPγS binding
T7 construct: expressed in transfected cells; host or cells: HEK293T cells (transient)
T7 sequence (O95977 1-384): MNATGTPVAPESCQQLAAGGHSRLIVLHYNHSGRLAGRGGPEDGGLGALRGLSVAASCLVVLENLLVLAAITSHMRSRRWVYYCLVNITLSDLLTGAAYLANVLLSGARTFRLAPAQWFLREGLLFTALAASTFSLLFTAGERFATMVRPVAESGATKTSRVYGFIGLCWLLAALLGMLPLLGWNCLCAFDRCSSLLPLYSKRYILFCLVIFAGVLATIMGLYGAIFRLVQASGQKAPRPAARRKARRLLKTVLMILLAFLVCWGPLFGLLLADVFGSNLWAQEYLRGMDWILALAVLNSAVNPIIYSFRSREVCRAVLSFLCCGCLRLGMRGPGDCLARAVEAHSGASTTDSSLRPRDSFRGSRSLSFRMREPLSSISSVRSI
Protocol: as §2, §5

S1P receptors [2] = test system: T8, S1P receptors; assay: [γ-35S]GTP binding assay, recombinant S1P receptors in general; details: various S1P receptors
T8 construct: other: various S1P receptors
Protocol: as §1

T3 sequence (Q99500 whole entry): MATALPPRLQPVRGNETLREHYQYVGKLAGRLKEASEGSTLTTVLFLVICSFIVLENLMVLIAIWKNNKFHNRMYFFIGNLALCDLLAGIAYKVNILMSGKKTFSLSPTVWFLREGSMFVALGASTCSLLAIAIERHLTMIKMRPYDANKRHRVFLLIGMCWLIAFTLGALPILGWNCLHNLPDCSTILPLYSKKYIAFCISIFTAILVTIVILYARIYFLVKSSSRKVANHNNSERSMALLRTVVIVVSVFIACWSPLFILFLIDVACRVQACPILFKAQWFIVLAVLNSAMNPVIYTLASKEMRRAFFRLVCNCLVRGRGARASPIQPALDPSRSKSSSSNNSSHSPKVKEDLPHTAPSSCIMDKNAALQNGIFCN
T2 sequence (P21453 whole entry): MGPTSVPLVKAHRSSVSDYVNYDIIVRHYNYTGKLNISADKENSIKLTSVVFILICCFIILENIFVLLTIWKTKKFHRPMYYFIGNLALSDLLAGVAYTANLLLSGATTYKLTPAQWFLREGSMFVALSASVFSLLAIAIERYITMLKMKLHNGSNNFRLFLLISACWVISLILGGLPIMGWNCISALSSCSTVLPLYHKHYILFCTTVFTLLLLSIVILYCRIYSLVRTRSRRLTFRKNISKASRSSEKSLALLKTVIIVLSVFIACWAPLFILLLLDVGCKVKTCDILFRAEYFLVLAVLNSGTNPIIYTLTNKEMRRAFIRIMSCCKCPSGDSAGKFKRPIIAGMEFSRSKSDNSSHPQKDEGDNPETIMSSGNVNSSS
T4 sequence (O95136 whole entry): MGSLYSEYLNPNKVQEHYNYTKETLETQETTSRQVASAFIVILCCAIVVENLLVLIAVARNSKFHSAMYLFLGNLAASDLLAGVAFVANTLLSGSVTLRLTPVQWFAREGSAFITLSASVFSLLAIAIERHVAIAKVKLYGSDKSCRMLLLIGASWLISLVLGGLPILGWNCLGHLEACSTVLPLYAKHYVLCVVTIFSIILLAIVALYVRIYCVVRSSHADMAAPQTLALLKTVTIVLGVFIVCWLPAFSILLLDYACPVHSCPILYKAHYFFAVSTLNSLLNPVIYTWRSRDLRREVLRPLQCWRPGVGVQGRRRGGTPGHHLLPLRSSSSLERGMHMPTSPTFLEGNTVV
T5 sequence (Q9H228 whole entry): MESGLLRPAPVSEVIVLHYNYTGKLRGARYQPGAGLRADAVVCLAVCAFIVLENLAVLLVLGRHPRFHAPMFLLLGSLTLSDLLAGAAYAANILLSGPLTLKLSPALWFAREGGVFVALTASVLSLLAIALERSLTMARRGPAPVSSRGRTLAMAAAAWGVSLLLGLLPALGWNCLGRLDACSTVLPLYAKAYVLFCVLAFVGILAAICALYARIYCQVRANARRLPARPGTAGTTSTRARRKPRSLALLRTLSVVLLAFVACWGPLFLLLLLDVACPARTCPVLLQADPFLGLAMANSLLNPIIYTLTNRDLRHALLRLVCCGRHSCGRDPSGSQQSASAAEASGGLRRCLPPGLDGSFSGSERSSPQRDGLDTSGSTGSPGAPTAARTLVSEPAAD
T6 sequence (Q91X56 whole entry): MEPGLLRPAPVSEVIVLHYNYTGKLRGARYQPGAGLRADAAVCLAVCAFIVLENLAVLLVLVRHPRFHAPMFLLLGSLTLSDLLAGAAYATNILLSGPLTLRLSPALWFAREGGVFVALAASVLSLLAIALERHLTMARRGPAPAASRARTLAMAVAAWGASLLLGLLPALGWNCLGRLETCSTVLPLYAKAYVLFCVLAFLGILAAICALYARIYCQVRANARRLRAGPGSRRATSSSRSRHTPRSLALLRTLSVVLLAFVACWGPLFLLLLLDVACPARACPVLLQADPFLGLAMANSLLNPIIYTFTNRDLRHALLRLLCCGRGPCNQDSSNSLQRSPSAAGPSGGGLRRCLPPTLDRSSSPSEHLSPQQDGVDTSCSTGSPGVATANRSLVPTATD

Structure (SMILES): CCCCCCCCCCCCC/C=C/[C@@H](O)[C@@H](N)COP(=O)(O)O [Compound S1P, Sphingosine-1-phosphate, reference compound]
increase of GTPγS binding at each receptor (S1P receptors [1]): 2-5 fold

Structure (SMILES): CCCCCCCCCCCCCCNC(=O)[C@@H](N)COP(=O)(O)O [VPC22051]
EC50 (zS1P1): > 5000 nM
EC50 (hS1P1): 322 nM
EC50 (hS1P3): 602 nM
EC50 (hS1P2): 2760 nM
EC50 (hS1P5): > 5000 nM
EC50 (mS1P5): > 5000 nM

Structure (SMILES): CCCCCCCCCCCCCCOC(=O)[C@@H](N)COP(=O)(O)O [VPC22053]
EC50 (zS1P1): > 5000 nM
less potent than enantiomer VPC22135 at the S1P1 receptor (hS1P1): more than 1 log order
EC50 (hS1P1): 397 nM
less potent than enantiomer VPC22135 at the S1P3 receptor (hS1P3): more than 1 log order
EC50 (hS1P3): 862 nM
EC50 (hS1P2): 2680 nM
EC50 (hS1P5): 1610 nM
EC50 (mS1P5): 2010 nM

Structure (SMILES): CCCCCCCCCCCCCCNC(=O)[C@H](N)COP(=O)(O)O [VPC22135]
potency compared with S1P at the human S1P1 receptor (hS1P1): approached the potency of S1P
potency compared with S1P at the human S1P3 receptor (hS1P3): approached the potency of S1P

Structure (SMILES): CCCCCCc1cccc(NC(=O)[C@H](N)COP(=O)(O)O)c1 [VPC23031]
agonism or inverse agonism (antagonism) at the S1P3 receptor (hS1P3): inverse agonists
activity at the S1P2 receptor (hS1P2): inactive; also recorded: failed to show significant activity

Structure (SMILES): CCCCCCCCCCc1cccc(NC(=O)[C@H](N)CO)c1 [VPC23065]
activity at the S1P2 receptor (hS1P2): inactive; also recorded: failed to show significant activity
agonist activity at the S1P4 receptor (hS1P4): good agonist activity
agonist activity at S1P receptors (S1P receptors [2]): significant agonist activity

Structure (SMILES): CCCCCCCCCCc1cccc(NC(=O)[C@H](N)COP(=O)(O)O)c1 [VPC23069]
agonism or inverse agonism (antagonism) at the S1P3 receptor (hS1P3): agonism
activity at the S1P2 receptor (hS1P2): inactive; also recorded: failed to show significant activity

Structure (SMILES): CCCCCCCCCc1cccc(NC(=O)[C@H](N)CO)c1 [VPC23075]
activity at the S1P2 receptor (hS1P2): inactive; also recorded: failed to show significant activity
agonist activity at the S1P4 receptor (hS1P4): good agonist activity
agonist activity at S1P receptors (S1P receptors [2]): significant agonist activity

The next lines start with results.

antagonism at S1P1 (hS1P1; competition with S1P): antagonism
agonism or inverse agonism (antagonism) at the S1P3 receptor (hS1P3): inverse agonists
Structure (SMILES): CCCCCCCCc1cccc(NC(=O)[C@H](N)COP(=O)(O)O)c1 [VPC23019]
activity at the S1P2 receptor (hS1P2): inactive; also recorded: failed to show significant activity

agonism or inverse agonism (antagonism) at the S1P3 receptor (hS1P3): agonism
Structure (SMILES): CCCCCCCCCc1cccc(NC(=O)[C@H](N)COP(=O)(O)O)c1 [VPC23079]
activity at the S1P2 receptor (hS1P2): inactive; also recorded: failed to show significant activity

agonist activity at the S1P4 receptor (hS1P4): good agonist activity
agonist activity at S1P receptors (S1P receptors [2]): significant agonist activity
Structure (SMILES): CCCCCCCCc1ccccc1NC(=O)[C@H](N)CO [VPC23087]
activity at the S1P2 receptor (hS1P2): inactive; also recorded: failed to show significant activity

agonism or inverse agonism (antagonism) at the S1P3 receptor (hS1P3): inverse agonists
Structure (SMILES): CCCCCCCCc1ccccc1NC(=O)[C@H](N)COP(=O)(O)O [VPC23089]
activity at the S1P2 receptor (hS1P2): inactive; also recorded: failed to show significant activity
